Literature values as cited in patent US7732404B2 (priority 1999, dated 2010).

System: mice
Conditions: mouse, in vivo, po

CCOC(=O)C(C)O (stereo not shown) [Ethyl lactate, 2-hydroxypropanoic acid ethyl ester]
LD50: higher than 5 g/kg
